Results reported in US10959966B2, “Compositions and methods for modulating HEXM1 expression” (CASE WESTERN RESERVE UNIVERSITY, priority 2014, dated 2021).

Key:
[1] = system: HEXIM1 expression in LNCaP prostate cancer cells; assay: HEXIM1 expression by western blot in LNCaP cells treated with HMBA analogs; assay type: cell-based; conditions: LNCaP cells, 24 h, western blot normalized to β-actin; for HEXIM1 expression induction at lower concentration: analogs at 100 μM; for HEXIM1 expression compared to the vehicle treatment (cutoff 2.5 fold): analogs at 500 μM
Method: FIGS. 2(A-B) illustrate Western blots and a graph showing the effect of HMBA analogs on HEXIM1 expression. LNCaP cells were treated with vehicle, HMBA (5 mM) and its analogs at 500 μM for 24 h. Level of HEXIM1 (upper panel) and β-actin (lower panel) was analyzed by Western blot of cell extracts with HEXIM1 antibody and β-actin antibody respectively. The bands of HEXIM1 were quantified using ImageJ (NIH) and normalized to β-actin. The results are the representative of three independent experiments.
FIGS. 3(A-B) illustrate Western blots and a graph showing lower concentration of HMBA analogs on HEXIM1 expression. LNCaP cells were treated with vehicle, HMBA (5 mM) and identified analogs at 100 μM for 24 h. Level of HEXIM1 (upper panel) and β-actin (lower panel) was analyzed by Western blot of cell extracts with HEXIM1 antibody and β-actin antibody respectively. The bands of HEXIM1 were quantified using ImageJ (NIH) and normalized to β-actin. The results are the representative of three independent experiments.
FIGS. 4(A-B) illustrate Western blots and a graph showing dose-dependent study of compound 4a1 and HMBA on HEXIM1 expression. Level of HEXIM1 (upper panel) and β-actin (lower panel) was analyzed by Western blot of cell extracts with HEXIM1 antibody and β-actin antibody respectively.
HMBA analogs described herein can be synthesized based on the HMBA scaffold and then selected for their ability to induce HEXIM1 expression in an in vitro cell assay. For example, the synthesized HMBA analogs can be administered to cells, such as LNCaP prostate cancer cells, and the level of HEXIM1 in such cells can be measured using western blot analyses. The level of HEXIM1 expression of cells that are treated with a potential HMBA analog can be compared to control cells treated without the HMBA analog or with HMBA. Control cells (untreated or treated with HMBA) can be assigned a relative HEXIM1 expression value. Induction or promotion of HEXIM1 expression is achieved when the HEXIM1 expression relative to the control is increased at least about 1%, 5%, 10%, 15%, 20%, 30%, 50%, 75%, 100%, 200%, or more.
The synthesis of the symmetrical and unsymmetrical derivatives is described in Scheme 1 and 2, respectively. For the symmetrical analogs, moieties A and C were kept identical. Besides the acetyl group of HMBA, methanesulfonyl group, propionyl group or butyryl group were introduced. In addition, a bulky benzoyl group was introduced. The active proton in the amide moiety was replaced with methyl group to generate a series of analogs with lower solubility. For the moiety B, various linkers such as 1,3-propylene, […] 1,4-cyclohexylene, 1,4-phenylene-bis(methylene), 1,4-cyclohexylene-bis(methylene) were tested for optimization. For the unsymmetrical analogs, the A and B moieties were kept the same as HMBA while the C moiety was modified with aryl or alkyl amide. A total of 32 compounds were synthesized, and these compounds were examined for their potency to induce HEXIM1 in LNCaP prostate cancer cells. HMBA (5 mM) was used as a positive control.
(§1) Therefore, these three compounds were screened at lower concentrations.

[2] = Precipitation of compounds in cell culture; assay type: physicochemical; conditions: 500 μM
Method: as §1
Some compounds were further evaluated at a lower concentration of 100 μM (FIG. 3). […] The variation in potency could be due to the precipitation of the two compounds at 500 μM, which hampers cell penetration. […] Due to the unsymmetrical structural characteristic of 4a1, a dose-dependent study was performed and the results are presented in FIG. 4.

LNCaP cells = assay: Cell morphology after treatment, to exclude compounds causing cell toxicity; conditions: 500 μM
Description: Cell morphology was examined after the treatment to exclude compounds that caused cell toxicity.

| Compound | HEXIM1 expression induction at lower concentration [1] | HEXIM1 expression compared to the vehicle treatment (cutoff 2.5 fold) [1] | Precipitation during the treatment [2] | Cell morphology after the treatment (LNCaP cells) |
| --- | --- | --- | --- | --- |
| CCCC(=O)NCCCCCCNC(=O)CCC [Compound 2a5] | reduced activity |  |  |  |
| COc1ccc(C(=O)NCCCCCCNC(C)=O)cc1 [Compound 4a3] |  | reached this cutoff |  |  |
| CCC(=O)NCCCCCCNC(=O)CC [Compound 2a4] | reduced activity |  |  |  |
| CN(C1CCC(N(C)S(C)(=O)=O)CC1)S(C)(=O)=O (stereo not shown) [Compound 3d2] | significant activity | did not reach the cutoff | precipitation |  |
| CN(CCCN(C)S(C)(=O)=O)S(C)(=O)=O [Compound 3f2] | not able to induce HEXIM1 expression | did not reach the cutoff | precipitation |  |
| CC(=O)NCC1CCC(CNC(C)=O)CC1 (stereo not shown) [Compound 2c1] |  | reached this cutoff |  | cell morphology slightly changed |
| CN(Cc1ccc(CN(C)S(C)(=O)=O)cc1)S(C)(=O)=O [Compound 3b2] | 2 fold |  |  |  |
| CC(=O)N(C)C1CCC(N(C)C(C)=O)CC1 (stereo not shown) [Compound 3d1] | not able to induce HEXIM1 expression |  |  |  |
| CC(=O)NC1CCC(NC(C)=O)CC1 (stereo not shown) [Compound 2d1] | not able to induce HEXIM1 expression |  |  |  |
| CN(CC1CCC(CN(C)S(C)(=O)=O)CC1)S(C)(=O)=O (stereo not shown) [Compound 3c2] | not able to induce HEXIM1 expression |  |  |  |
| CC(=O)N(C)Cc1ccc(CN(C)C(C)=O)cc1 [Compound 3b1] | 3.8 fold |  |  |  |
| CN(CCCCCCN(C)S(C)(=O)=O)S(C)(=O)=O [Compound 3a2] | significant activity | did not reach the cutoff | precipitation |  |
| CS(=O)(=O)NCCCNS(C)(=O)=O [Compound 2f2] | not able to induce HEXIM1 expression |  |  |  |
| CC(=O)NCCCCCCNC(=O)c1ccc(-c2ccccc2)cc1 [Compound 4a4] | not able to induce HEXIM1 expression | did not reach the cutoff |  |  |
